Results as given in patent publication US4737513A, “Novel pyrrole derivatives” (Roussel Uclaf, priority 1984, dated 1988).

System: house flies
Assay: Study of knock-down activity of house flies (direct atomization in a Kearns and March chamber)
Assay type: in vivo
Conditions: for KT 50: concentration at 0.1 g/l, female house flies 4 days old, acetone (5%) and Isopar L; for knock-down power: general statement in the description
Experimental: (1) Study of knock-down activity of house flies
The test insects were female house flies 4 days old and the test was effected by direct atomization in a Kearns and March chamber using as solvent a mixture of acetone (5%) and Isopar L (petrol solvent) (quantity of solvent used, 2 ml in one second). 50 insects were used per treatment and checks were made every minute for 10 minutes, then at 15 minutes, and the KT50 was determined by the usual methods.

Structure (SMILES) | KT 50 [min] | knock-down power
CCOC(=O)/C(F)=C\[C@H]1[C@@H](C(=O)OCc2cc(C#N)n(C/C=C\Cl)c2)C1(C)C [Example 65, [2-cyano-[1-(3-chloro-2-(Z)-propenyl]-1H-pyrrol-4-yl]-methyl (1R,cis,ΔE) 2,2-dimethyl-3-(2-fluoro-3-ethoxy-3-oxo-1-propenyl)-cyclopropane carboxylate] | 3.1 | 
C#CCn1ccc(C(C#N)OC(=O)[C@@H]2[C@H](/C=C(/F)C(=O)OCC)C2(C)C)c1 (stereo partly drawn) [Example 15, cyano-[1-(2-propynyl)-1H-pyrrol-3-yl]-methyl (1R,cisΔE) 2,2-dimethyl-3-(3-ethoxy-3-oxo-2-fluoro-1-propenyl)-cyclopropane carboxylate] | 1.8 | particularly remarkable
C#CCn1ccc(COC(=O)[C@@H]2[C@H](/C=C\C(=O)OC)C2(C)C)c1 [Example 1, [1-(2-propynyl)-1H-pyrrol-3-yl]-methyl (1R,cisΔZ) 2,2-dimethyl-3-(3-methoxy-3-oxo-1-propenyl)-cyclopropane carboxylate] | 1.3 | particularly remarkable
C#CCn1ccc(COC(=O)[C@@H]2[C@H](C=C(Br)Br)C2(C)C)c1 (relative stereo) [Example 6, [1-(2-propynyl)-1H-pyrrol-3-yl]-methyl (1R,cis) 2,2-dimethyl-3-(-dibromoethenyl)-cyclopropane carboxylate] | 4.7 | 
C#CCn1ccc(COC(=O)[C@@H]2[C@H](/C=C\C(=O)OC(C)(C)C)C2(C)C)c1 [Example 3, [1-(2-propynyl)-1H-pyrrol-3-yl]-methyl (1R,cis,ΔZ) 2,2-dimethyl-3-(3-tert-butyloxy-3-oxo-1-propenyl)-cyclopropane carboxylate] | 5.8 | 
C=CCn1cc(COC(=O)[C@@H]2[C@H](C=C(Br)Br)C2(C)C)cc1C#N (relative stereo) [Example 54, [1-(2-propenyl)-2-cyano-1H-pyrrol-4-yl]methyl (1R,cis) 2,2-dimethyl-3-(2,2-dibromoethenyl)-cyclopropane carboxylate] | 4.7 | 
C#CCn1ccc(COC(=O)[C@@H]2[C@H](/C=C(/F)C(=O)OC)C2(C)C)c1 [Example 4, [1-(2-propynyl)-1H-pyrrol-3-yl]-methyl (1R,cisΔE) 2,2-dimethyl-3-(3-methoxy-3-oxo-2-fluoro-1-propenyl)-cyclopropane carboxylate] | 2.4 | 
C#CCn1ccc(COC(=O)[C@@H]2[C@H](/C=C(/F)C(=O)OCC)C2(C)C)c1C#N [Example 52, [1-(2-propynyl)-2-cyano-1H-pyrrol-3-yl]methyl (1R,cis) 2,2-dimethyl-3-(2-fluoro-2-ethoxy-2-oxo-1-propenyl)cyclopropane carboxylate] | 1.5 | 
C#CCn1cc(C(C)OC(=O)[C@@H]2[C@H](/C=C(/F)C(=O)OCC)C2(C)C)cc1C#N (stereo partly drawn) [Example 60, [1-(2-propynyl)-2-cyano-1H-pyrrol-4-yl]-ethyl (1R,cisΔE) 2,2-dimethyl-3-(2-fluoro-3-ethoxy-3-oxo-1-propenyl)-cyclopropane carboxylate] | 1.8 | 
C=CCn1cc(C(C#N)OC(=O)[C@@H]2[C@H](C=C(Br)Br)C2(C)C)cc1C#N (stereo partly drawn) [Example 55, (R,S)-cyano-[1-(2-propenyl)-2-cyano-1H-pyrrol-4-yl]-methyl (1R,cis) 2,2-dimethyl-3-(2,2-dibromoethenyl)-cyclopropane carboxylate] | 8.7 | 
C#CCn1ccc(COC(=O)[C@@H]2[C@H](/C=C\C(=O)OC)C2(C)C)c1C#N [Example 51, [1-(2-propynyl)-2-cyano-1H-pyrrol-3-yl]methyl (1R,cis) 2,2-dimethyl-3-(3-methoxy-3-oxo-1-propenyl)cyclopropane carboxylate] | 1.9 | 
C=CCn1ccc(C(C#N)OC(=O)[C@@H]2[C@H](C=C(Br)Br)C2(C)C)c1 (stereo partly drawn) [Example 50, (R,S)-cyano-[1-(2-propenyl)-1H-pyrrol-3-yl]methyl (1R,cis) 2,2-dimethyl-3-(2,2-dibromoethenyl)cyclopropane carboxylate] | 3.5 | 
C#CCn1ccc(COC(=O)[C@@H]2[C@H](/C=C(/F)C(=O)OCC)C2(C)C)c1 [Example 2, [1-(2-propynyl)-1H-pyrrol-3-yl]-methyl (1R,cisΔE) 2,2-dimethyl-3-(3-ethoxy-3-oxo-2-fluoro-1-propenyl)-cyclopropane carboxylate] | 1.6 | particularly remarkable
C#CCn1cc(C(C#C)OC(=O)[C@@H]2[C@H](/C=C(/F)C(=O)OCC)C2(C)C)cc1C#N (stereo partly drawn) [Example 57, [1-(2-propynyl)-2-cyano-1H-pyrrol-4-yl]-propyn-2-yl (1R,cisΔE) 2,2-dimethyl-3-[2-fluoro-3-ethoxy-3-oxo-1-propenyl]-cyclopropane carboxylate] | 4.0 | 
CCOC(=O)/C(F)=C\[C@H]1[C@@H](C(=O)OCc2cc(C#N)n(C/C=C/Cl)c2)C1(C)C [Example 66, [2-cyano-1-[3-chloro-2-(E)-propenyl]-1H-pyrrol-4-yl]-methyl (1R,cisΔE) 2,2-dimethyl-3-[2-fluoro-3-ethoxy-3-oxo-1-propenyl]-cyclopropane carboxylate] | 7.9 | 
C#CCn1ccc(C(C#N)OC(=O)[C@@H]2[C@H](/C=C(/F)C(=O)OCC)C2(C)C)c1C#N (stereo partly drawn) [Example 67, (R,S) cyano[1-(2-propynyl)-2-cyano-1H-pyrrol-3-yl]-methyl (1R,cisΔE) 2,2-dimethyl-3-(2-fluoro-3-ethoxy-3-oxo-1-propenyl)-cyclopropane carboxylate] | 3.8 | 
C=CCn1cc(COC(=O)[C@@H]2[C@H](/C=C(/F)C(=O)OCC)C2(C)C)cc1C#N [Example 53, [1-(2-propenyl)-2-cyano-1H-pyrrol-4-yl]methyl (1R,cisΔE) 2,2-dimethyl-3-[2-fluoro-2-ethoxy-2-oxo-1-propenyl]cyclopropane carboxylate] | 2.4 | 
C=CCn1ccc(COC(=O)[C@@H]2[C@H](/C=C(/F)C(=O)OCC)C2(C)C)c1 [Example 56, 1-(2-propenyl-1H-pyrrol-3-yl)-methyl (1R,cisΔE) 2,2-dimethyl-3-(2-fluoro-3-ethoxy 3-oxo-1-propenyl)-cyclopropane carboxylate] | 4.0 | 
C#CCn1cc(C(C#N)OC(=O)[C@@H]2[C@H](/C=C(/F)C(=O)OCC)C2(C)C)cc1C#N (stereo partly drawn) [Example 44] | 2.2 | 
C#CCn1ccc(COC(=O)[C@@H]2[C@H](/C=C(/F)C(=O)OC(C)(C)C)C2(C)C)c1 [Example 5, [1-(2-propynyl)-1H-pyrrol-3-yl]-methyl (1R,cis,ΔE) 2,2-dimethyl-3-(3-tert-butoxy-3-oxo-2-fluoro-1-propenyl)-cyclopropane carboxylate] | 3.2 | 
C#CCn1ccc(COC(=O)[C@@H]2[C@H](C=C(Br)Br)C2(C)C)c1C#N [Example 26] | 3.5 | 
